Experimental data reported in patent publication US11219614B2, “Combination cancer therapy with pentaaza macrocyclic ring complex and ascorbate compound” (Galera Labs, LLC, priority 2016, dated 2022).

Tests used:
[1] = test system: Normal human fibroblasts (NHFs); experiment: surviving fraction of normal human fibroblasts; type: cell-based; conditions: 5 μM GC4419 24 h followed by 10 pmol/cell ascorbate 1 h; FIG. 9
Method: FIG. 9 is a graph showing the normalized surviving fraction of normal human fibroblasts (NHFs) treated with GC4419, ascorbate, and a combination of GC4419 and ascorbate. Normal human fibroblasts (NHFs) were plated and grown in culture (low FBS media) for 48 hours. The NHFs were then treated with 5 μM GC4419 for 24 hours followed by treatment with 10 pmol/cell ascorbate for 1 hour.
Normal human fibroblasts (NHFs) were plated and grown in culture (low FBS media) for 48 hours. The NHFs were then treated with 5 μM GC4419 for 24 hours followed by treatment with 10 pmol/cell ascorbate for 1 hour.

Lung cancer cells (H292) = experiment: clonogenic cell survival assay, H292; type: cell-based; conditions: ascorbate 1 h in combination with 5, 10 or 20 μM GC4419 24 h; compared to monotherapies; FIG. 2
Method: (§1) FIG. 2 is a plot showing the surviving fraction of H292 cells for increasing amounts of ascorbate, as determined by a clonogenic cell survival assay to used determine the effects of the compound alone and in combination with a pentaaza macrocyclic ring complex (GC4419). Lung cancer cells (H292) were exponentially grown in culture for 48 hours. The cells were then treated with 5-20 μM GC4419 for 24 hours, and ascorbate (Asc) for one hour, followed immediately by clonogenic assay. The cells were trypsinized, counted, replated at varying lower densities and incubated. Plates were stained and counted for clonogenic survival assays.
as §1, with “The effect” for “FIG. 2 is a plot showing the surviving fraction”, “ascorbate was tested in” for “H292 cells for increasing amounts of ascorbate, as determined by”, “to” for “to used”, “hour” for “hour,”, “followed” for “followed immediately”, “by immediate” for “by”

[2] = test system: head and neck squamous cell carcinoma cells (SCC25); experiment: clonogenic cell survival assay, SCC25; type: cell-based, Human; conditions: ascorbate 1 h in combination with 5, 10 or 20 μM GC4419 24 h, both present at the same time; compared to monotherapies or sequential treatment with media replacement; FIG. 3
Method: FIG. 3 is a plot showing the surviving fraction of SCC25 cells for increasing amounts of ascorbate, as determined by a clonogenic cell survival assay used to determine the effects of the compound alone and in combination with a pentaaza macrocyclic ring complex (GC4419). Human head and neck squamous cell carcinoma cells (SCC25) were exponentially grown in culture for 24 hours. The cells were then treated with 5-20 μM GC4419 for 24 hours and ascorbate (Asc) for one hour, followed by immediate clonogenic assay. The cells were trypsinized, counted, replated at varying lower densities and incubated. Plates were stained and counted for clonogenic survival assays.
The effect of ascorbate was tested in a clonogenic cell survival assay to determine the effects of the compound alone and in combination with a pentaaza macrocyclic ring complex (GC4419). Human head and neck squamous cell carcinoma cells (SCC25) were exponentially grown in culture for 24 hours. The cells were then treated with 5-20 μM GC4419 for 24 hours, and ascorbate (Asc) for one hour, followed by immediate clonogenic assay. The cells were trypsinized, counted, replated at varying lower densities and incubated. Plates were stained and counted for clonogenic survival assays.

[3] = test system: VEGFr inhibitor-induced pulmonary disease; conditions: rat model; cited from earlier work
[4] = test system: tongue carcinoma cells (Cal27); experiment: clonogenic cell survival assay, Cal27; type: cell-based, Human
Method: FIG. 4 is a plot showing the surviving fraction of Cal27 cells for increasing amounts of ascorbate, as determined by a clonogenic cell survival assay used to determine the effects of the compound alone and in combination with a pentaaza macrocyclic ring complex (GC4419). Human tongue carcinoma cells (Cal27) were exponentially grown in culture for 48 hours. The cells were then treated with 5-20 μM GC4419 for 24 hours, and ascorbate (Asc) for one hour, followed by immediate clonogenic assay. The cells were trypsinized, counted, replated at varying lower densities and incubated.
(§2) FIG. 6 is a graph showing the surviving fraction of Cal 27 cells treated with ascorbate and combinations with including ascorbate. The effects of ascorbic acid (AA) in combination with a pentaaza macrocyclic ring complex (GC4419) was tested in a clonogenic cell survival assay to determine the effects of the combination alone and when paired with ionizing radiation. Human tongue carcinoma cells (Cal27) were exponentially grown in culture for 48 hours. The cells were then treated with 5 μM GC4419 for 3 hours and 10 pmol/cell ascorbate for 1 hour, either alone, in combination (GC+AA), and/or paired with a dose of ionizing radiation (2 Gy). After the ionizing radiation dose, the cells were trypsinized, counted, replated at varying lower densities and incubated. Plates were stained and counted for clonogenic survival assays.
The effect of ascorbate was tested in a clonogenic cell survival assay to determine the effects of the compound alone and in combination with a pentaaza macrocyclic ring complex (GC4419). Human tongue carcinoma cells (Cal27) were exponentially grown in culture for 48 hours. The cells were then treated with 5-20 μM GC4419 for 24 hours, and ascorbate (Asc) for one hour, followed by immediate clonogenic assay. The cells were trypsinized, counted, replated at varying lower densities and incubated. Plates were stained and counted for clonogenic survival assays.
as §2, with “The” for “FIG. 6 is a graph showing the surviving fraction of Cal 27 cells treated with ascorbate and combinations with including ascorbate. The”

[5] = test system: oral mucositis in head-and-neck cancer patients; conditions: head-and-neck cancer patients undergoing chemoradiation therapy; cited from earlier work

Q: With [Cl][Mn][Cl].c1cc2nc(c1)CN[C@H]1CCCC[C@@H]1NCCN[C@H]1CCCC[C@@H]1NC2 [GC4419] as the compound, how does the “cytotoxicity to normal cells” value [1] read?
A: does not increase cytotoxicity of ascorbate

Q: And the “cell killing (clonogenic survival)” value (Lung cancer cells (H292))?
A: significant enhancements in cell killing

Q: And the “cell killing (clonogenic survival)” value [2]?
A: significant enhancements in cell killing

Q: And the pulmonary disease [3]?
A: attenuate VEGFr inhibitor-induced pulmonary disease

Q: What about the “synergistic activity of the combination” value ([4]; 5 μM GC4419 3 h + 10 pmol/cell ascorbate 1 h (GC+AA), FIG. 6) of the same compound?
A: more than merely an additive effect

Q: And the “cell killing (clonogenic survival)” value ([4]; 5 μM GC4419 3 h + 10 pmol/cell ascorbate 1 h (GC+AA), compared to control and to either alone, FIG. 6)?
A: significant enhancements in cell killing

Q: And the “sensitization to ionizing radiation” value ([4]; GC+AA+IR (2 Gy) compared to IR 2Gy alone, FIG. 6)?
A: sensitized the cancer cells to radiation

Q: And the “cell killing (clonogenic survival)” value ([4]; ascorbate 1 h in combination with 5, 10 or 20 μM GC4419 24 h, compared to monotherapies, FIG. 4)?
A: significant enhancements in cell killing

Q: What about the oral mucositis [5] of the same compound?
A: reduce oral mucositis
